This is an account of results in ChEMBL document CHEMBL3758089, “Giffonins J-P, Highly Hydroxylated Cyclized Diarylheptanoids from the Leaves of Corylus avellana Cultivar "Tonda di Giffoni"” (J Nat Prod, 2015).

What all share (type): functional, cell-based
Assay [1] relates to U2OS. Briefly: Cytotoxicity against human U2OS cells expressing wild-type p53 after 24 hrs by crystal violet-staining based spectrophotometric assay.
The nature of assay [2]: Cytotoxicity against human Saos2 cells […] after 24 hrs by crystal violet-staining based spectrophotometric assay. The note with it: SAOS-2, 24 h.
Assay [3] deals with U2OS. The experiment in a line: Cytotoxicity against human U2OS cells expressing wild-type p53 after 48 hrs by crystal violet-staining based spectrophotometric assay.
A short description of assay [4]: Cytotoxicity against human Saos2 cells […] after 48 hrs by crystal violet-staining based spectrophotometric assay. The note with it: SAOS-2, 48 h.

As to `C[C@H]1OC(Oc2c(-c3ccc(O)cc3)oc3cc(O)cc(O)c3c2=O)[C@@H](O)[C@@H](O)[C@@H]1O` (stereo partly drawn), the EC50 (in the assay with U2OS [1]; in assay [2]; with U2OS [3]; in assay [4]) was above 150 µM each time.
In the case of `COc1c2cc(c(OC)c1O)Oc1ccc(cc1)[C@@H](O)C[C@@H](O)/C=C/C=C\2`, the EC50 (in the assay with U2OS [1]; in assay [2]; in the assay with U2OS [3]; in assay [4]) was above 150 µM in each case.
On to `COc1c2cc(c(OC)c1O)Oc1ccc(cc1)[C@@H](O)C[C@@H](O)CC/C=C\2`, for which the EC50 (with U2OS [1]; in assay [2]; in the assay on U2OS [3]; in assay [4]) was above 150 µM in each case.
With `C[C@H]1OC(Oc2c(-c3ccc(O)cc3)oc3cc(O)cc(O)c3c2=O)[C@@H](O)[C@@H](O)[C@@H]1OC(=O)/C=C/c1ccc(O)cc1` (stereo partly drawn), the EC50 (in the assay on U2OS [1]; in assay [2]; in the assay on U2OS [3]; in assay [4]) was above 150 µM each time.
Consider `Oc1ccc2cc1-c1cc(ccc1O)C[C@H](O)[C@@H](O)[C@@H](O)C[C@@H](O)C2`, for which the EC50 (with U2OS [1]; in assay [2]; with U2OS [3]; in assay [4]) was above 150 µM in each case.
As for `C[C@H]1OC(Oc2c(-c3cc(O)c(O)c(O)c3)oc3cc(O)cc(O)c3c2=O)[C@@H](O)[C@@H](O)[C@@H]1O` (stereo partly drawn), the EC50 (in the assay with U2OS [1]; in assay [2]; in the assay on U2OS [3]; in assay [4]) was above 150 µM throughout.
Turning to `O=C1C[C@@H](O)Cc2ccc(O)c(c2)-c2cc(ccc2O)C[C@H](O)[C@H]1O`, the EC50 (in the assay on U2OS [1]; in assay [2]; in the assay with U2OS [3]; in assay [4]) was above 150 µM in each case.
For `Oc1ccc2cc1-c1cc(ccc1O)C[C@H](O)[C@H](O)C(O)[C@@H](O)[C@H](O)C2` (stereo partly drawn), the EC50 (with U2OS [1]; in assay [2]; with U2OS [3]; in assay [4]) was above 150 µM in each case.
In the case of `O=C1CCc2ccc(O)c(c2)-c2cc(ccc2O)C[C@H](O[C@@H]2O[C@H](CO)[C@H](O)[C@@H](O)[C@H]2O)C[C@H]1O`, the EC50 (with U2OS [1]; in assay [2]; in the assay with U2OS [3]; in assay [4]) was above 150 µM throughout.
Take `O=C1CCc2ccc(O)c(c2)-c2cc(ccc2O)C[C@H](O)C[C@H]1O`: the half-maximal effective concentration (EC50) (with U2OS [1]; in assay [2]; in the assay with U2OS [3]; in assay [4]) was above 150 µM in each case.
With `C[C@H]1OC(Oc2c(-c3ccc(O)c(O)c3)oc3cc(O)cc(O)c3c2=O)[C@@H](O)[C@@H](O)[C@@H]1O` (stereo partly drawn), the EC50 (in the assay on U2OS [1]; in assay [2]; in the assay on U2OS [3]; in assay [4]) was above 150 µM throughout.
Turning to `COc1cc(/C=C/C(=O)CC(=O)/C=C/c2ccc(O)c(OC)c2)ccc1O` [CURCUMIN], the EC50 in the assay on U2OS [1] worked out at 34.4 µM; in assay [2], 48.6 µM; in the assay on U2OS [3], 22.8 µM; in assay [4], 28.1 µM.

Usually EC50 stands for the concentration giving half of the maximal effect. High values mean lower potency in that assay, low ones higher potency in that assay.
